Test results as given in patent US7049292B2, “Therapeutically effective peptides related to preproinsulin” (King's College London, priority 2004, dated 2006).
Values joined by “and” are separate entries in the source; they are usually repeats but may differ in a detail not shown here. Equal entries are not always repeated. Where two headings read alike, the source gives them in different places. Ends that are not written are not given here.

Tests used:
[1] = tested on: pathogenic (IFN-γ) CD4+ T lymphocytes in PBMCs; assay: IFN-γ ELISPOT analysis of PBMCs cultured with peptide; assay type: cell-based, human; settings: for Prevalence of IFN-γ responses, Totals (%) / Prevalence of IFN-γ responses, Totals (responders/tested): positive response SI≧3.0; for IFN-γ response, stimulation index (SI): PBMCs, peptide 10 μM
[2] = tested on: anti-inflammatory (IL-10 secreting) CD4+ T lymphocytes in PBMCs; assay type: cell-based, human; settings: for IL-10 response, stimulation index (SI): PBMCs, peptide 10 μM
[3] = T1DM patients with HLA-DR4 alleles
[4] = T1DM patients with non-DR4 alleles
[5] = patient #3, T1DM with HLA-DR4 alleles
[6] = patient #4, T1DM with HLA-DR4 alleles
[7] = patient #6, T1DM with HLA-DR4 alleles
[8] = patient #19, T1DM with HLA-DR4 alleles
[9] = patient #24, T1DM with HLA-DR4 alleles
[10] = patient #26, T1DM with non-DR4 alleles
[11] = patient #30, T1DM with non-DR4 alleles
[12] = non-diabetic control subject C4
[13] = non-diabetic control subject C8
[14] = non-diabetic control subjects, positive response SI≧3.0
[15] = patient #27, T1DM with non-DR4 alleles
[16] = non-diabetic control subject C9
[17] = patient #5, T1DM with HLA-DR4 alleles
[18] = patient #35, T1DM with non-DR4 alleles
[19] = patient #9, T1DM with HLA-DR4 alleles
[20] = patient #10, T1DM with HLA-DR4 alleles
[21] = patient #12, T1DM with HLA-DR4 alleles
[22] = patient #28, T1DM with non-DR4 alleles
[23] = non-diabetic control subject C5
[24] = non-diabetic control subject C13
[25] = patient #13, T1DM with HLA-DR4 alleles

Substance | Prevalence of IFN-γ responses, Totals (%) [1, 3] | Prevalence of IFN-γ responses, Totals (responders/tested) [1, 3] | Prevalence of IFN-γ responses, Totals (%) [1, 4] | Prevalence of IFN-γ responses, Totals (responders/tested) [1, 4] | Prevalence of IFN-γ responses, Totals (%) ([1]; non-diabetic control subjects) | Prevalence of IFN-γ responses, Totals (responders/tested) ([1]; non-diabetic control subjects) | IFN-γ response, stimulation index (SI) [1, 5] | IFN-γ response, stimulation index (SI) [1, 6] | IFN-γ response, stimulation index (SI) [1, 7] | IFN-γ response, stimulation index (SI) [1, 8] | IFN-γ response, stimulation index (SI) [1, 9] | IFN-γ response, stimulation index (SI) [1, 10] | Prevalence of IL-10 responses, Totals (responders/tested) [2] | IL-10 response, stimulation index (SI) [2, 12] | IL-10 response, stimulation index (SI) [2, 13] | IL-10 response, stimulation index (SI) [2, 5] | IL-10 response, stimulation index (SI) [2, 9] | IL-10 response, stimulation index (SI) [2, 15] | IL-10 response, stimulation index (SI) [2, 18] | IFN-γ response, stimulation index (SI) [1, 25] | other results
955–76: IA-2 peptide sequence, residues 955–76 (SKDQFEFALTAVAEEVNAILKA; UniProt Q16849 955-976, looked up, fragment) | (16) % | 4/25 | (18) % | 2/11 | (0) % | 0/14 | 4.7 | 3.0 | 11.2 | 3.0 | 38.0 | 5.0 | 2/17 and 1/7 | 5.6 | 15.0 | 3.0 | 29.5 | 4.0 |  |  | IFN-γ response, stimulation index (SI) [1, 11]: 4.7; IL-10 response, stimulation index (SI) ([2]; non-diabetic control subject C11): 5.2; Prevalence of IL-10 responses, Totals (responders/tested) [2, 14]: 3/14
652–80: IA-2 peptide sequence, residues 652–80 (SRVSSVSSQFSDAAQASPSSHSSTPSWCE; UniProt Q16849 652-680, looked up, fragment) | (24) % | 6/25 | (9) % | 1/11 | (7) % | 1/14 | 3.0 |  | 23.2 |  | 36.0 |  | 2/17 and 1/7 and 4/14 | 5.3 | 4.0 | 4.8 | 4.5 |  | 8.0 |  | IFN-γ response, stimulation index (SI) [1, 16]: 3.8; IFN-γ response, stimulation index (SI) ([1]; patient #2, T1DM with HLA-DR4 alleles): 3.1; IFN-γ response, stimulation index (SI) [1, 17]: 6.2; IFN-γ response, stimulation index (SI) ([1]; patient #7, T1DM with HLA-DR4 alleles): 6.4; IFN-γ response, stimulation index (SI) [1, 15]: 16.7; IL-10 response, stimulation index (SI) [2, 16]: 3.5; IL-10 response, stimulation index (SI) ([2]; non-diabetic control subject C10): 8.4
GSLQPLALEGSLQKRGIV [C19-A3] | (47) % | 8/17 | (38) % | 3/8 | (0) % | 0/14 | 10.7 | 3.5 | 63.6 |  |  | 3.3 | 1/12 and 2/5 |  | 29.0 | 10.21 |  | 7.0 |  |  | IFN-γ response, stimulation index (SI) ([1]; patient #8, T1DM with HLA-DR4 alleles): 3.0; IFN-γ response, stimulation index (SI) [1, 19]: 4.6; IFN-γ response, stimulation index (SI) [1, 20]: 5.0; IFN-γ response, stimulation index (SI) ([1]; patient #11, T1DM with HLA-DR4 alleles): 3.3; IFN-γ response, stimulation index (SI) [1, 21]: 10.7; IFN-γ response, stimulation index (SI) [1, 22]: 5.0; IFN-γ response, stimulation index (SI) [1, 11]: 5.7; IL-10 response, stimulation index (SI) [2, 23]: 10.3; IL-10 response, stimulation index (SI) [2, 24]: 5.0; Prevalence of IL-10 responses, Totals (responders/tested) [2, 14]: 3/13; IL-10 response, stimulation index (SI) ([2]; patient #33, T1DM with non-DR4 alleles): 3.1
793–817: IA-2 peptide sequence, residues 793–817 (DFWQMVWESGCTVIVMLTPLVEDGV; UniProt Q16849 793-817, looked up, fragment) | (12) % | 3/25 | (0) % | 0/11 | (0) % | 0/14 | 9.7 | 3.5 |  | 19.0 |  |  | 1/17 and 1/7 and 2/14 | 3.4 |  | 3.0 |  | 34.0 |  | 4.1 | IL-10 response, stimulation index (SI) [2, 24]: 3.5
QPLALEGSLQKRGIVEQ [C22-A5] | (18) % | 3/17 | (25) % | 2/8 | (0) % | 0/14 |  |  | 22.0 |  |  |  | 1/12 and 1/5 and 1/13 |  |  | 7.36 |  | 3.0 |  | 3.3 | IFN-γ response, stimulation index (SI) [1, 17]: 3.7; IFN-γ response, stimulation index (SI) [1, 22]: 5.8; IFN-γ response, stimulation index (SI) ([1]; patient #29, T1DM with non-DR4 alleles): 4.0; IL-10 response, stimulation index (SI) [2, 24]: 4.3
KLKVESSPSRSDYINASPIIEHDP [752–75, IA-2 peptide eluted from HLA-DR4] | (32) % | 8/25 | (9) % | 1/11 | (0) % | 0/14 | 4.3 |  |  | 7.0 |  | 3.0 |  |  | 16.0 | 16.0 | 15.0 | 33.0 | 4.0 | 3.4 | IFN-γ response, stimulation index (SI) [1, 20]: 12.3; IFN-γ response, stimulation index (SI) [1, 21]: 3.3; IFN-γ response, stimulation index (SI) ([1]; patient #20, T1DM with HLA-DR4 alleles): 3.9; IFN-γ response, stimulation index (SI) ([1]; patient #23, T1DM with HLA-DR4 alleles): 3.6; Prevalence of IL-10 responses, Totals (responders/tested) ([2]; T1DM patients with HLA-DR4 alleles, positive response SI≧3.0): 3/17; Prevalence of IL-10 responses, Totals (responders/tested) ([2]; listed as 725–75): 2/7 and 2/14; IL-10 response, stimulation index (SI) ([2]; non-diabetic control subject C3): 8.7; IL-10 response, stimulation index (SI) [2, 21]: 3.79
SFYLKNVQTQETRTLTQFHF [853–72, IA-2 peptide eluted from HLA-DR4] | (28) % | 7/25 | (18) % | 2/11 | (7) % | 1/14 | 10 |  | 6.6 |  | 48.3 |  | 2/17 and 2/7 and 2/14 |  | 66.0 |  | 9.0 | 20.0 | 9.6 | 3.6 | IFN-γ response, stimulation index (SI) [1, 16]: 4.7; IFN-γ response, stimulation index (SI) ([1]; patient #1, T1DM with HLA-DR4 alleles): 10.0; IFN-γ response, stimulation index (SI) [1, 19]: 5.2; IFN-γ response, stimulation index (SI) [1, 15]: 3.1; IFN-γ response, stimulation index (SI) ([1]; patient #34, T1DM with non-DR4 alleles): 3.7; IL-10 response, stimulation index (SI) [2, 23]: 4.7; IL-10 response, stimulation index (SI) [2, 7]: 4.3
